Earlier results in patent US8372995B2, “Crystalline solid forms of tigecycline and methods of preparing same” (priority 2005, dated 2013).

Assays:
[1] = test system: methicillin-resistant Staphylococcus aureus
[2] = test system: penicillin-resistant Streptococcus pneumoniae
[3] = test system: vancomycin-resistant enterococci
[4] = test system: organisms carrying either of the two major forms of tetracycline resistance: efflux and ribosomal protection
[5] = oral

SMILES: CN(C)c1cc(NC(=O)CNC(C)(C)C)c(O)c2c1C[C@H]1C[C@H]3[C@H](N(C)C)C(O)=C(C(N)=O)C(=O)[C@@]3(O)C(O)=C1C2=O [Tigecycline]
- activity against methicillin-resistant Staphylococcus aureus [1]: active
- activity against penicillin-resistant Streptococcus pneumoniae [2]: active
- activity against vancomycin-resistant enterococci [3]: active
- activity against organisms carrying tetracycline resistance (efflux, ribosomal protection) [4]: active
- bioavailability when given orally [5]: generally poor
